Laboratory results from patent US10301294B2, “Compounds for the treatment of tuberculosis” (priority 2013, dated 2019).
Read-outs that look alike come from different tables or passages of the source.

Columns and labels:
Type in all cases: cell-based
[1] = test system: carbon-starved M. tuberculosis H37Rv; assay: microbe, parasite or virus in culture; details: for IC90: Mycobacterium tuberculosis, H37RV, read-out: Against carbon starving non-replicating Mtb IC90
[2] = test system: replicating M. tuberculosis H37Rv; assay: microbe, parasite or virus in culture; details: for IC90: Mycobacterium tuberculosis, H37RV, read-out: Against Replicating Mtb IC90; for Against Replicating Mtb, % @ 62: at 62 uM; for Against Replicating Mtb, % @ 125: at 125 uM
[3] = Cytotoxicity against Hek 293; details: human, HEK293 cells, 26.0 uM highest concentration measured
[4] = Cytotoxicity against HeLa; details: human, HeLa cells, 26.0 uM highest concentration measured
[5] = test system: replicating M. tuberculosis H37Rv; assay: microbe, parasite or virus in culture; details: Mycobacterium tuberculosis, H37RV, three independent experiments in triplicate, read-out: TB Growth Inhibition Activity, IC90 Replicating_logarithmic (converted)
[6] = test system: carbon-starved M. tuberculosis H37Rv; assay: Non-replicating IC90 determination by luciferase (carbon-starved cells); details: Mycobacterium tuberculosis, H37RV; non-replicating carbon-starved Mtb, luciferase; three independent experiments in triplicate; read-out: TB Growth Inhibition Activity, IC90 Non-replicating_luciferase
[7] = Cytotoxicity against HepG2; details: human, HepG2 cells, 26.0 uM highest concentration measured

Row | Structure (SMILES) | IC50 [3] | IC50 [4] | IC90 [5] | IC90 [6] | IC50 [7] | further results
1 | c1ccc(-c2nnc(SC3CCCCC3)o2)cc1 [drawing 262] | – | – | – | – | – | IC90 [1]: 31 µM
2 | Fc1cccc(-c2nnc(SCc3ccccn3)o2)c1 [drawing 270] | – | – | – | – | – | IC90 [1]: < 8 µM; IC90 [2]: 31 µM
3 | [O-][S+](Cc1ccccn1)c1nnc(-c2ccc(Cl)cc2)o1 (stereo not drawn) [drawing 264] | – | – | – | – | – | IC90 [1]: 10 µM
4 | Fc1ccc(-c2nnc(SCc3ccccn3)o2)cc1 [drawing 269] | – | – | – | – | – | Against carbon starving non-replicating Mtb, % @ 4 [1]: 99% @ 4; Against Replicating Mtb, % @ 16 ([2]; […], at 16 uM): 98.5% @ 16
5 | [O-][S+](Cc1cn(Cc2ccccc2)nn1)c1nnc(-c2ccc(Cl)cc2)o1 (stereo not drawn) [drawing 272] | – | – | – | – | – | Against carbon starving non-replicating Mtb, % @ 31 ([1]; […], at 31 uM): 100% @ 31; Against Replicating Mtb, % @ 62 ([2]; […]): 100% @ 62
6 | Fc1ccc(CSc2nnc(-c3ccccc3)o2)cc1 [drawing 259] | – | – | – | – | – | IC90 [1]: 62 µM
7 | c1ccc(-c2nnc(SCc3ccccn3)o2)cc1 [drawing 261] | – | – | – | – | – | IC90 [1]: 4 µM; Against Replicating Mtb, % @ 125 ([2]; […]): 99% @ 125
8 | c1ccc(CSc2nnc(Cc3ccccc3)o2)cc1 | > 26 µM | > 26 µM | 500 µM | 4 µM | > 26 µM | –
9 | COc1cccc(-c2nnc(SCc3ccccc3)o2)c1 | > 26 µM | > 26 µM | 250 µM | 8 µM | > 26 µM | –
10 | [O-][S+](Cc1ccccc1)c1nnc(-c2ccccc2)o1 (stereo not drawn) [drawing 267] | – | – | – | – | – | IC90 [1]: 4 µM; Against Replicating Mtb, % @ 31 ([2]; […], at 31 uM): 100% @ 31
11 | FC(F)(F)c1cccc(CSc2nnc(-c3ccccc3)o2)c1 | > 26 µM | > 26 µM | 250 µM | 4 µM | > 26 µM | –
12 | Fc1ccc(Cn2cc(CSc3nnc(C4CCCC4)o3)nn2)cc1 | > 26 µM | > 26 µM | > 62 µM | 31 µM | > 26 µM | –
13 | [O-][n+]1ccccc1CSc1nnc(-c2ccccc2)o1 [drawing 263] | – | – | – | – | – | Against carbon starving non-replicating Mtb IC90 (uM) [1]: None
14 | c1ccc(-n2cc(CSc3nnc(C4CCCC4)o3)nn2)cc1 | > 26 µM | > 26 µM | 62 µM | 4 µM | > 26 µM | –
15 | c1ccc(CSc2nnc(-c3ccccc3)s2)cc1 | > 26 µM | > 26 µM | 62 µM | 8 µM | > 26 µM | –
16 | Fc1cccc(-c2nnc(SCc3ccccc3)o2)c1 | > 26 µM | > 26 µM | 125 µM | 1 µM | > 26 µM | –
17 | Fc1ccc(Cn2cc(CSc3nnc(-c4ccc(F)cc4)o3)nn2)cc1 | > 26 µM | > 26 µM | > 62 µM | 4 µM | > 26 µM | –
18 | COCCSc1nnc(-c2ccccc2)o1 [drawing 260] | – | – | – | – | – | IC90 [1]: 4 µM
19 | Clc1ccccc1-c1nnc(SCc2ccccc2)o1 | > 26 µM | > 26 µM | 250 µM | 32 µM | > 26 µM | –
20 | CS(=O)(=O)c1ccccc1-c1nnc(SCc2ccccc2)o1 | > 26 µM | > 26 µM | 500 µM | 62 µM | > 26 µM | –

Row | Structure (SMILES) | IC50 [3] | IC50 [4] | IC90 [5] | IC90 [6] | IC50 [7] | further results
21 | Fc1ccc(Cn2cc(CSc3nnc(C4CCC4)o3)nn2)cc1 | > 26 µM | > 26 µM | > 62 µM | 8 µM | > 26 µM | –
22 | Fc1ccc(-c2nnc(SCc3cn(-c4ccccc4)nn3)o2)cc1 | > 26 µM | > 26 µM | > 62 µM | 2 µM | > 26 µM | –
23 | COc1cccc(-c2nnc(SCc3ccccn3)o2)c1 [drawing 274] | – | – | – | – | – | Against carbon starving non-replicating Mtb, % @ 16 ([1]; […], at 16 uM): 99% @ 16; Against Replicating Mtb, % @ 62 ([2]; […]): 99% @ 62
24 | Fc1ccc(Cn2cc(CSc3nnc(-c4ccc(Cl)cc4)o3)nn2)cc1 | > 26 µM | > 26 µM | > 62 µM | 2 µM | > 26 µM | –
25 | CS(=O)(=O)c1cccc(CSc2nnc(-c3ccccc3)o2)c1 | > 26 µM | > 26 µM | 250 µM | 250 µM | > 26 µM | –
26 | Fc1ccccc1CSc1nnc(-c2ccccc2)o1 | > 26 µM | > 26 µM | 250 µM | 1 µM | > 26 µM | –
27 | FC(F)(F)Oc1ccccc1CSc1nnc(-c2ccccc2)o1 | > 26 µM | > 26 µM | 500 µM | 4 µM | > 26 µM | –
28 | c1ccc(Cn2cc(CSc3nnc(C4CCC4)o3)nn2)cc1 | > 26 µM | > 26 µM | > 62 µM | 8 µM | > 26 µM | –
29 | CN(C)CCSc1nnc(-c2ccccc2)o1 | > 26 µM | > 26 µM | 500 µM | 16 µM | > 26 µM | –
30 | COC(=O)CCCOc1ccc(CSc2nnc(-c3ccc(Cl)cc3)o2)nc1 [drawing 276] | – | – | – | – | – | Against carbon starving non-replicating Mtb, % @ 8 [1]: 99% @ 8; IC90 [2]: 31 µM
31 | [N-]=[N+]=NCCOCCNC(=O)CCCOc1ccc(C[S+]([O-])c2nnc(-c3ccc(Cl)cc3)o2)nc1 (stereo not drawn) [drawing 278] | – | – | – | – | – | Against carbon starving non-replicating Mtb, % @ 8 [1]: 97% @ 8
32 | Cc1ccc(-c2nnc(SCc3ccccc3)o2)cc1 | > 26 µM | > 26 µM | 125 µM | 4 µM | > 26 µM | –
33 | Clc1ccc(-c2nnc(SCc3cn(Cc4ccccc4)nn3)o2)cc1 [drawing 273] | – | – | – | – | – | Against carbon starving non-replicating Mtb, % @ 4 [1]: 99% @ 4; Against Replicating Mtb, % @ 125 ([2]; […]): 98% @ 125
34 | Cc1ccccc1CSc1nnc(-c2ccccc2)o1 | > 26 µM | > 26 µM | 250 µM | 8 µM | > 26 µM | –
35 | c1ccc(CSc2nnc(-c3ccccn3)o2)cc1 | > 26 µM | > 26 µM | 125 µM | 4 µM | > 26 µM | –
36 | [N-]=[N+]=NCCOCCNC(=O)CCCOc1ccc(CSc2nnc(-c3ccc(Cl)cc3)o2)nc1 [drawing 277] | – | – | – | – | – | Against carbon starving non-replicating Mtb, % @ 8 [1]: 98% @ 8
37 | c1ccc(-c2nnc(SCc3cccnc3)o2)cc1 [drawing 143] | > 26 µM | > 26 µM | 125 µM | 8 µM | > 26 µM | –
38 | c1ccc(-n2cc(CSc3nnc(C4CCC4)o3)nn2)cc1 | > 26 µM | > 26 µM | 62 µM | 2 µM | > 26 µM | –
39 | CN(Cc1ccccc1)c1nnc(-c2ccccc2)o1 | > 26 µM | > 26 µM | 250 µM | 0.5 µM | > 26 µM | –
40 | c1ccc(CCc2nnc(-c3ccccc3)o2)cc1 | > 26 µM | > 26 µM | 250 µM | 0.5 µM | > 26 µM | –

Row | Structure (SMILES) | IC50 [3] | IC50 [4] | IC90 [5] | IC90 [6] | IC50 [7] | further results
41 | c1ccc(Cn2cc(CSc3nnc(-c4ccccc4)o3)nn2)cc1 | > 26 µM | > 26 µM | > 62 µM | 4 µM | > 26 µM | –
42 | c1ccc(CSc2nnc(C3CCCCC3)o2)cc1 | > 26 µM | > 26 µM | 125 µM | 1 µM | > 26 µM | –
43 | c1ccc(-c2nnc(SCc3ncco3)o2)cc1 | > 26 µM | > 26 µM | 31 µM | 16 µM | > 26 µM | –
44 | Cc1cccc(CSc2nnc(-c3ccccc3)o2)c1 | > 26 µM | > 26 µM | 125 µM | 1 µM | > 26 µM | –
45 | COc1ccccc1-c1nnc(SCc2ccccc2)o1 | > 26 µM | > 26 µM | 250 µM | 125 µM | > 26 µM | –
46 | FC(F)(F)c1ccccc1-c1nnc(SCc2ccccc2)o1 | > 26 µM | > 26 µM | 500 µM | 62 µM | > 26 µM | –
47 | Fc1ccc(-c2nnc(SCc3cn(Cc4ccccc4)nn3)o2)cc1 | > 26 µM | > 26 µM | > 62 µM | 2 µM | > 26 µM | –
48 | COCCSc1nnc(-c2ccccc2)o1 [drawing 148] | > 26 µM | > 26 µM | 125 µM | 3 µM | > 26 µM | –
49 | Clc1ccc(-c2nnc(SCc3cn(Cc4ccccc4)nn3)o2)cc1 [drawing 156] | > 26 µM | > 26 µM | > 62 µM | 2 µM | > 26 µM | –
50 | Fc1cccc(CSc2nnc(-c3ccccc3)o2)c1 | > 26 µM | > 26 µM | 250 µM | 2 µM | > 26 µM | –
51 | COCC[S+]([O-])c1nnc(-c2ccc(Cl)cc2)o1 (stereo not drawn) [drawing 265] | – | – | – | – | – | IC90 [1]: 10 µM
52 | CC(C)c1nnc(SCc2ccccc2)o1 | > 26 µM | > 26 µM | 125 µM | 2 µM | > 26 µM | –
53 | Brc1ccc(-c2nnc(SCc3ccccn3)o2)cc1 [drawing 266] | – | – | – | – | – | IC90 [1]: < 8 µM
54 | c1ccc(-c2nnc(SCc3cscn3)o2)cc1 | > 26 µM | > 26 µM | 62 µM | 4 µM | > 26 µM | –
55 | Fc1ccc(-c2nnc(SCc3ccccc3)o2)cc1 | > 26 µM | > 26 µM | 125 µM | 2 µM | > 26 µM | –
56 | c1ccc(CCc2nnc(SCc3ccccc3)o2)cc1 | > 26 µM | > 26 µM | 250 µM | 32 µM | > 26 µM | –
57 | O=S(=O)(Cc1ccccc1)c1nnc(-c2ccccc2)o1 [drawing 268] | – | – | – | – | – | IC90 [1]: 62 µM
58 | c1ccc(-c2nnc(SCCC3OCCCO3)o2)cc1 [drawing 258] | – | – | – | – | – | IC90 [1]: 10 µM
